# Experimental data: article PMC11546786, “Designing Analogs of SAAP-148 with Enhanced Antimicrobial and Anti-LPS Activities” (International Journal of Molecular Sciences, 2024)
# Experiments:
# [1] = Reversed-phase HPLC retention time as measure of peptide hydrophobicity; type: physicochemical; details: retention time by reverse-phase HPLC, reflects hydrophobicity difference between analogues
# Description: The physicochemical parameters crucial for the antimicrobial activity of AMPs have been identified, encompassing net charge, helicity, hydrophobicity, and amphipathicity. The hydropathicity, mean relative hydrophobic moment, and charge of peptides were predicted using the HeliQuest (https://heliquest.ipmc.cnrs.fr/ (accessed on 12 March 2024)). Lysine is a hydrophilic amino acid, and its substitution leads to a decrease in the hydrophobicity of the SAAP-148 analogue. The anticipated results are consistent, with the degree of reduction in […] varying depending on the position at which lysine is substituted (Table 2). The amphipathicity of the peptides, as denoted by the μH (mean relative hydrophobic moment), is elaborated on in Table 2. The hydrophobic moment of SAAP-148 analogues was decreased except for SAAP-10, which is on account of the substitution occurring on the18th residue. (Figure 1) The 18th residue of SAAP-148 is glutamine, a polar amino acid residue, located at the junction of the hydrophobic and hydrophilic surfaces of the SAAP-148 α-helix. […] The retention time data determined by reversed-phase high-performance liquid chromatography (RP-HPLC) reflects the hydrophobicity difference between peptide analogues. It is well documented that the formation of a hydrophobic-binding domain due to peptide secondary structure can affect peptide interactions with reversed-phase matrices. This effect was observed particularly for amphipathic α-helical peptides. Given this preferred binding domain, amphipathic α-helical peptides are considerably more retentive than non-amphipathic peptides with the same amino acid composition.
# This phenomenon was particularly evident in the case of amphipathic α-helical peptides. […] This discrepancy may be attributed to the lack of a well-defined α-helical structure in SAAP-148 and its analogues (Figure S1).
# [2] = system: Gram-negative bacteria (E. coli, P. aeruginosa, K. pneumoniae); test: Geometric mean of MICs against Gram-negative bacteria; type: cell-based; parameters: unit not given here
# Protocol: (§1) The antibacterial activities of the peptides against […] were evaluated using a modified version of the Clinical Laboratory and Standards Institute (CLSI) broth microdilution method, as previously described. Briefly, the bacteria were cultured in liquid LB medium (comprising 10 g/L tryptone, 5 g/L yeast extract, and 10 g/L NaCl) at 37 °C until reaching mid-log phase. Subsequently, the bacterial concentration was adjusted to 1 × 10^6 colony-forming units (CFU)/mL. The peptides were then diluted serially with phosphate-buffered saline (PBS), followed by the addition of 50 μL of the diluted peptides to 50 μL of the bacterial suspension in a 96-well plate (Corning Inc., Lowell, MA, USA). After incubating at 37 °C for 18 to 20 h, the absorbance of each well was measured using a multi-well microplate reader (SpectraMax M5; Molecular Devices, Sunnyvale, CA, USA) at 600 nm.
# [3] = system: Gram-positive bacteria (S. aureus, S. epidermidis); test: Geometric mean of MICs against Gram-positive bacteria; type: cell-based; parameters: unit not given here
# Protocol: as §1
# five bacterial strains = test: MICs against all five bacterial strains (geometric mean, range); type: cell-based; parameters: unit not given here; details: geometric mean of MICs against all five bacterial strains
# Protocol: as §1
# BEAS-2B cells = test: Membrane damage, PI staining and flow cytometry; type: cell-based; details: 6.25 μM peptide, 1 × 10^6 cells, 37 °C, 30 min, flow cytometry
# Protocol: (§2) Propidium iodide (PI) was utilized as a marker for assessing the structural integrity of cell membranes and the occurrence of cell death. The impact of peptides on BEAS-2B cells, E. coli, and S. aureus was investigated by treating the cells with peptides followed by PI staining and flow cytometry (FACS) analysis to evaluate peptide-induced membrane damage. Table 5 presents the results of PI staining in BEAS-2B cells (1 × 10^6) following treatment with peptides at a concentration of 6.25 μM. […] FACS analysis at a peptide concentration of 6.25 μM was employed to determine the membrane damage caused by peptides in E. coli and S. aureus cells (Table 5).
# (§3) Peptide-induced membrane damage was evaluated by quantifying the influx of propidium iodide (PI). BEAS-2B cells (1 × 10^6 cells in 50 μL) were exposed to a final concentration of 6.25 μM peptide and incubated at 37 °C for 30 min, followed by PBS washing and re-suspension in PI solution (dissolved in PBS) at a final concentration of 2 μg/mL. Bacteria were cultured to mid-log phase at 37 °C, then diluted to an OD600 of 0.5 in phosphate-buffered saline (PBS). […] The bacteria were harvested and re-suspended in PI solution, with fluorescence signal analysis conducted using flow cytometry (Cytomics FC 500, Beckman Coulter, Indianapolis, IN, USA).
# E. coli = test: Membrane damage, PI staining and flow cytometry; type: cell-based, Escherichia coli; details: 6.25 μM peptide, OD600 0.5 in PBS, 37 °C, 30 min, flow cytometry
# Protocol: as §2, §3
# S. aureus = test: Membrane damage, PI staining and flow cytometry; type: cell-based, Staphylococcus aureus; details: 6.25 μM peptide, OD600 0.5 in PBS, 37 °C, 30 min, flow cytometry
# Protocol: as §2, §3
# [4] = CD spectra, secondary structure by BeStSel; type: physicochemical; details: 30 μM SDS as printed, 100 μM peptide, 25 °C
# Protocol: CD spectra (Figure S1) were acquired using a JASCO J-1500 spectropolarimeter (JASCO Inc., Easton, MD, USA) in 0.1 cm pathlength cells under nitrogen at 25 °C. The spectra were recorded in the range of 190 to 250 nm at a peptide concentration of 100 μM in SDS. Secondary structure was determined using the BeStSel server. Hydropathicity, mean relative hydrophobic moment, and charge of peptides were predicted using the HeliQuest (https://heliquest.ipmc.cnrs.fr/ (accessed on 12 March 2024)). The 3D structure of SAAP-148 and its analogues (Figure S2) was predicted using PEP-FOLD4 servers (https://bioserv.rpbs.univ-paris-diderot.fr/services/PEP-FOLD4/ (accessed on 19 June 2024)).
smiles,measurement,setting,value
"CC[C@H](C)[C@H](NC(=O)[C@H](CCCCN)NC(=O)[C@H](CCC(=O)O)NC(=O)[C@H](CCCCN)NC(=O)[C@H](CO)NC(=O)[C@H](CCCCN)NC(=O)[C@H](CCCNC(=N)N)NC(=O)[C@H](Cc1ccccc1)NC(=O)[C@H](Cc1ccccc1)NC(=O)[C@H](CC(=O)O)NC(=O)CNC(=O)[C@H](CC(C)C)NC(=O)[C@@H](N)CC(C)C)C(=O)NCC(=O)N[C@@H](CCCCN)C(=O)N[C@@H](CCC(=O)O)C(=O)N[C@@H](Cc1ccccc1)C(=O)N[C@@H](CCCCN)C(=O)N[C@@H](CCCNC(=N)N)C(=O)N[C@H](C(=O)N[C@H](C(=O)N[C@@H](CCC(N)=O)C(=O)N[C@@H](CCCNC(=N)N)C(=O)N[C@H](C(=O)N[C@@H](CCCCN)C(=O)N[C@@H](CC(=O)O)C(=O)N[C@@H](Cc1ccccc1)C(=O)N[C@@H](CC(C)C)C(=O)N[C@@H](CCCNC(=N)N)C(=O)N[C@@H](CC(N)=O)C(=O)N[C@@H](CC(C)C)C(=O)N[C@H](C(=O)N1CCC[C@H]1C(=O)N[C@@H](CCCNC(=N)N)C(=O)N[C@H](C(=O)N[C@@H](CCC(=O)O)C(=O)N[C@@H](CO)C(=O)O)[C@@H](C)O)C(C)C)[C@@H](C)CC)C(C)C)[C@@H](C)CC [LL-37, reference compound]",Rt,[1],11.125 min
same,GM to G−,[2],12.49
same,GM to G+,[3],100
same,MIC (GM),five bacterial strains,28.72
same,"proportion of PI-positive cells, BEAS-2B",BEAS-2B cells,31.2%
same,"proportion of PI-positive cells, E. coli",E. coli,78.9%
same,"proportion of PI-positive cells, S. aureus",S. aureus,46.9%
same,Others,[4],0%
same,Turn,[4],0%
same,α-Helix,[4],100%
same,β-Antiparallel,[4],0%
same,β-Parallel,[4],0%
